Results published in patent US20110009624A9, “BENZIMIDAZOLE COMPOUNDS HAVING GASTRIC ACID SECRETION INHIBITORY ACTION” (priority 2006, published 2011).

Columns and labels:
[1] = test system: gastric acid secretion (histamine-stimulated); assay: Gastric acid secretion inhibitory effects in dogs fitted with chronic gastric fistula tube; type: in vivo; details: for Gastric acid secretion inhibitory action (%) / Duration of gastric acid secretion inhibitory action (%): dogs with chronic gastric fistula tube, histamine i.v., 1.6 mg/kg i.d.; for Gastric acid secretion inhibitory action (%): day 1 (1 h 40 min to 2 h after administration); for Duration of gastric acid secretion inhibitory action (%): day 2 (24 hours after administration); for gastric acid secretion inhibitory action and duration of gastric acid secretion inhibitory action (assessment in words): on the basis of Table 1
Experimental: Gastric Acid Secretion Inhibitory Effects in Dogs Fitted with Chronic Gastric Fistula Tube
The gastric acid secretion inhibitory and duration of gastric acid secretion inhibitory action of compounds of the examples were assessed using large dogs fitted with a chronic gastric fistula tube (body weights: approx. 14 to 19 kg). The experiment was conducted for 2 days. On the first day, gastric juices were collected every 20 minutes under conditions of continuous intravenous administration of histamine (50 or 75 μg/kg/h) for 3 hours. A compound of the examples dissolved or suspended in 0.5% methyl cellulose solution was administered via a catheter implanted in the duodenum at the rate of 0.1 ml/kg one hour after the start of histamine administration. The gastric acid secretion inhibitory action of the compound of the examples was assessed over the next two hours. On the second day (24 hours after administration of the compound of the examples), gastric juices were collected every 20 minutes under conditions of continuous intravenous administration of histamine for 2 hours followed by assessment of the duration of gastric acid secretion inhibitory action. After measuring the amount of gastric juices, 0.5 ml of gastric juice were sampled and titrated to neutrality to a pH of 7.0 with 0.04 mol/L aqueous sodium hydroxide solution to measure acid concentration. The amount of gastric acid discharged was determined by multiplying the amount of gastric juice by the acid concentration. Gastric acid secretion inhibitory action was evaluated as the rate of gastric acid secretion inhibition (%) on day 1. Gastric acid secretion inhibitory action (%) was determined according to the formula indicated below:
Gastric acid secretion inhibitory action (%)=(A−B)/A×100
[A]: amount of gastric acid discharged for 20 minutes from 40 minutes to 1 hour after the start of administration of histamine
[B]: amount of gastric acid discharged for 20 minutes from 1 hour 40 minutes to 2 hours after the start of administration of the compound of the examples.
The duration of gastric acid secretion inhibitory action was evaluated as the rate of gastric acid secretion inhibition (%) on day 2. The duration of gastric acid secretion inhibitory action (%) was determined according to the formula indicated below:
Duration of gastric acid secretion inhibitory action (%)=(C−D)/C×100
[C]: Total amount of gastric acid discharged from start of administration of histamine on day 1 to one hour later
[D]: Total amount of gastric acid discharged from start of administration of histamine on day 2 to one hour later.

H+, K+-ATPase = biological target: T1, H+, K+-ATPase (Sus scrofa, UniProt P19156); assay: H+, K+-ATPase activity inhibitory action; type: biochemical; details: hog gastric mucosa enzyme, preincubation 30 minutes at 37° C., pH 6.1
T1 construct: H^+, K^+-ATPase was prepared from a fundic gland area of fresh hog gastric mucosa; from tissue; host or cells: fundic gland area of fresh hog gastric mucosa
T1 sequence (P19156 whole entry): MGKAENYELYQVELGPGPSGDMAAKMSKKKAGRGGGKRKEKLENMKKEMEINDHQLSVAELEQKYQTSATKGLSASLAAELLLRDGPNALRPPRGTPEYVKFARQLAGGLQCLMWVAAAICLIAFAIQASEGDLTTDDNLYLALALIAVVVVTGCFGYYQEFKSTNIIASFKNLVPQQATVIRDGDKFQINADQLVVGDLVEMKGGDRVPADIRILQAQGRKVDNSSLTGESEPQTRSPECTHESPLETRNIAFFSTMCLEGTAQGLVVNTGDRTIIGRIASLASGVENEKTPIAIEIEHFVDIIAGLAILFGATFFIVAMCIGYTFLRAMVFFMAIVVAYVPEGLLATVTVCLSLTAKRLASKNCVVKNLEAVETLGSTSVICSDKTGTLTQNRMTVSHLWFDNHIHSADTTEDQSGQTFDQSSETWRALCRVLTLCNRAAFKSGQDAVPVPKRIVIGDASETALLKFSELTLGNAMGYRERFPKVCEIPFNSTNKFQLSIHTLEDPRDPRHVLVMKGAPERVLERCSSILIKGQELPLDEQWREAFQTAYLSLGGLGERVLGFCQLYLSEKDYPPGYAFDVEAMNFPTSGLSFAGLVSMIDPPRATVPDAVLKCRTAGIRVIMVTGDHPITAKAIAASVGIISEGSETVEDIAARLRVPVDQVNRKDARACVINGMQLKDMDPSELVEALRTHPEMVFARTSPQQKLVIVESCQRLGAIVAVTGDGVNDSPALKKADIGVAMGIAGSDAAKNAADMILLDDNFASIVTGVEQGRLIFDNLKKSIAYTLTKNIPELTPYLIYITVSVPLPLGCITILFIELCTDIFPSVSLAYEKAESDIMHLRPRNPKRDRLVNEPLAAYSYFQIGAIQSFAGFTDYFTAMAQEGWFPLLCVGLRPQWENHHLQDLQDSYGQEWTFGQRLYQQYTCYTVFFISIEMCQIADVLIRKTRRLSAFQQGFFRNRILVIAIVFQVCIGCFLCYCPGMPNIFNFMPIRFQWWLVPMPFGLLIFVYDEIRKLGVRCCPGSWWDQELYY
T1 sequence (P18434 whole entry partner): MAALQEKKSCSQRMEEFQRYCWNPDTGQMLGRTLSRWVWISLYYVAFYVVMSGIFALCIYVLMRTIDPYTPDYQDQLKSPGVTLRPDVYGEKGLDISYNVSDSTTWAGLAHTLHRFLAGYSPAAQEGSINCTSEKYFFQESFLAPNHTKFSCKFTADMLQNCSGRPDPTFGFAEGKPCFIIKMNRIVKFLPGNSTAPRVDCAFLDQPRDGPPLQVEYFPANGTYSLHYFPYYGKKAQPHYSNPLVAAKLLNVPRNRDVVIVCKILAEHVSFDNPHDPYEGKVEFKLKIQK
Experimental: H^+, K^+-ATPase Activity Inhibitory Action
H^+, K^+-ATPase was prepared from a fundic gland area of fresh hog gastric mucosa using a variation of the Chang's method [Biochim. Biophys. Acta 464, 313 (1977)].
(1) The sodium salt of 2-[[[4-[3-hydroxy-2-(hydroxymethyl)propoxy]-3,5-dimethylpyridin-2-yl]methyl]sulfinyl]-1H-benzimidazole (Example 15) and (2) 3-[3-hydroxy-2-(hydroxymethyl)propoxy]-2,4-dimethyl-5H-pyrido[1′,2′,4,5][1,2,4]thiadiazino[2,3-a]benzimidazolium hexafluorophosphate (Example 16) were selected for the test compounds, and each was used after dissolving in methanol.
10 μL aliquots of various concentrations of the test compounds or solvent were mixed into 200 μL of 50 μg/mL H^+, K^+-ATPase, 100 μL of 10 mmol/L Pipes-Tris (pH 6.1) and 190 μL of distilled water followed by incubating for 30 minutes at 37° C., adding 150 μL of 100 mmol/L KCl (or distilled water) and 10 μL of 100 μg/mL gramicidin, and further incubating for 10 minutes. […] The amount of inorganic phosphoric acid that was released during this 10 minute period was measured in compliance with the method of Yoda and Hokin (Biochem. Biophys. Res. Commun., 40, 880, 1970). […]
Residual enzyme activity at each concentration of test compound was determined as the amount of H^+, K^+-ATPase activity as a percentage of the H^+, K^+-ATPase activity of a control group (solvent addition). […]

| IC50 (H+, K+-ATPase) | Structure (SMILES) | Gastric acid secretion inhibitory action (%) [1] | Duration of gastric acid secretion inhibitory action (%) [1] | gastric acid secretion inhibitory action and duration of gastric acid secretion inhibitory action (assessment in words) [1] |
| --- | --- | --- | --- | --- |
| – | Cc1c(OCCCC2COC3(CCC3)O2)ccnc1C[S+]([O-])c1nc2ccccc2[n-]1.[Na+] (stereo not shown) [Example 9, 2-[[[4-[3-(5,8-dioxaspiro[3.4]octa-6-yl)propoxy]-3-methylpyridin-2-yl]methyl]sulfinyl]-1H-benzimidazole] | 100% | 89% | satisfactory |
| – | Cc1c(OCCC2COC3(CCOCC3)O2)ccnc1C[S+]([O-])c1nc2ccccc2[n-]1.[Na+] (stereo not shown) [Example 13, 2-[[[3-methyl-4-[2-(1,4,8-trioxaspiro[4.5]deca-2-yl)ethoxy]pyridin-2-yl]methyl]sulfinyl]-1H-benzimidazole] | 100% | 84% | satisfactory |
| 220 nM | Cc1c[n+]2c(c(C)c1OCC(CO)CO)CSn1c-2nc2ccccc21 [Example 16, 3-[3-Hydroxy-2-(hydroxymethyl)propoxy]-2,4-dimethyl-5H-pyrido[1′,2′,4,5][1,2,4]thiadiazino[2,3-a]benzimidazolium hexafluorophosphate] | – | – | – |
